Several values for one entry are separate records, joined by “and”; a condition that tells them apart may be missing. Equal entries are not always repeated.
Experiments:
[1] = biological target: T1, OE19 (3A1) (Homo sapiens, UniProt P30838); test: Cellular ALDEFLUOR assay in OE19 cells (preferential ALDH3A1 expression)
T1 sequence (P30838 1-453): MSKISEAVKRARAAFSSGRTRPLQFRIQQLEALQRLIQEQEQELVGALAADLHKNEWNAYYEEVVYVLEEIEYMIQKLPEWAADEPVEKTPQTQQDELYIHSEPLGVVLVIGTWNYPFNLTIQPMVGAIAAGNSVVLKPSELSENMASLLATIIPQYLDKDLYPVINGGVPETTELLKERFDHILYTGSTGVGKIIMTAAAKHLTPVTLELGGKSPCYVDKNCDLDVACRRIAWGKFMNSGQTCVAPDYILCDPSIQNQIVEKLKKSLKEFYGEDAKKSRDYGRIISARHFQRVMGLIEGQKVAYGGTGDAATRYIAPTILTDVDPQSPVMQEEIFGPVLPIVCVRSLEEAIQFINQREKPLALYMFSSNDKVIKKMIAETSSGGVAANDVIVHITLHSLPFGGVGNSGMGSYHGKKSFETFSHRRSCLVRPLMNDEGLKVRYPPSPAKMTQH

[2] = biological target: T2, Human ALDH3A1 (Homo sapiens, UniProt P30838); test: ALDH3A1 biochemical assay (benzaldehyde/NADP+, diaphorase-resazurin readout, 1,536-well)
T2 sequence (P30838 1-453): T1 sequence (P30838 1-453)

[3] = Table S5, biochemical curve class
[4] = Table S4, biochemical curve class

| Structure (SMILES) | AC50 [1] [nM] | Cell_Efficacy ([1]; Table S5, OE19 cells) | Cell_CC-v2 ([1]; Table S5, cellular curve class) | Efficacy ([2]; Table S5, biochemical) | CC-v2 [2, 3] | AC50 [2] [nM] | Cell_Efficacy ([1]; Table S4, OE19 cells) | Cell_CC-v2 ([1]; Table S4, cellular curve class) | Efficacy ([2]; Table S4, biochemical) | CC-v2 [2, 4] | IC50 ([1]; cellular IC50 (Aldefluor), OE19 cells) [nM] | IC50 ([2]; ALDH3A1 biochemical IC50) | activity in the biochemical assay ([2]; in words) | Efficacy ([2]; Table S2, in-house analogs) | CC-v2 ([2]; Table S2, in-house analogs, curve class) |
| --- | --- | --- | --- | --- | --- | --- | --- | --- | --- | --- | --- | --- | --- | --- | --- |
| O=C(Nc1ccncc1)c1ccc(CNC(=O)c2csc(N3CCN(c4cccc(C(F)(F)F)c4)CC3)n2)cc1 [NCGC01396478-01] | 6310 | -114.29 | -2.1 | -22.34 | 4 |  |  |  |  |  |  |  |  |  |  |
| O=C(COc1cccc(CNC(=O)c2csc(N3CCN(c4cccc(C(F)(F)F)c4)CC3)n2)c1)NC1CC1 [NCGC01407783-01] | 31.6 | -92.90 | -1.3 | -80.39 | -1.1 | 398 |  |  |  |  |  |  |  |  |  |
| CCOC(=O)Cc1ccc(N2CCN(c3nc(C(=O)NCc4cccc(C)c4)cs3)CC2)cc1 [NCGC01212809-01] | 3930 |  |  |  |  | 3240 | -80.26 | -1.1 | -99.09 | -1.1 |  |  |  |  |  |
| Cc1cccc(CNC(=O)c2csc(N3CCN(c4ccc(C5(C#N)CCCCC5)cc4)CC3)n2)c1 [NCGC01210611-01] | 620 |  |  |  |  | 730 | -33.71 | -1.2 | -77.35 | -1.2 |  |  |  |  |  |
| Cc1ccc(CNC(=O)c2csc(N3CCN(c4cccc(C(F)(F)F)c4)CC3)n2)cc1F [NCGC01407934-01] | 342 | -95.79 | -1.1 | -101.06 | -1.1 | 28.2 |  |  |  |  |  |  |  |  |  |
| Cc1cccc(CNC(=O)c2csc(N3CCN(c4ccc(O)cc4)CC3)n2)c1 [NCGC01211126-01] | 15700 |  |  |  |  | 5760 | -68.34 | -1.2 | -62.10 | -1.2 |  |  |  |  |  |
| Cc1cccc(CNC(=O)c2csc(N3CCN(c4cccc(OCc5ccc(Cl)cc5)c4)CC3)n2)c1 [NCGC01211114-01] | 1570 |  |  |  |  | 460 | -79.67 | -1.1 | -48.74 | -1.2 |  |  |  |  |  |
| Cc1cccc(CNC(=O)c2csc(N3CCN(c4cccc(O)c4)CC3)n2)c1 [NCGC01211119-01] | 15700 |  |  |  |  | 2570 | -77.14 | -1.2 | -61.43 | -1.2 |  |  |  |  |  |
| N#CSc1ccc(NC(=O)c2csc(N3CCN(c4cccc(C(F)(F)F)c4)CC3)n2)c(F)c1 [NCGC01407980-01] | 44.7 | -75.54 | -1.2 | -102.93 | -1.1 | 15800 |  |  |  |  |  |  |  |  |  |
| COc1ccc(N2CCN(c3nc(C(=O)NCc4cccc(C)c4)cs3)CC2)cc1OC [NCGC01211669-01] | 8810 |  |  |  |  | 6470 | -91.42 | -1.1 | -51.05 | -1.2 |  |  |  |  |  |
| COc1ccc(F)c(N2CCN(c3nc(C(=O)NCc4cccc(C)c4)cs3)CC2)c1 [NCGC01211189-01] | 7850 |  |  |  |  | 910 | -96.01 | -1.1 | -85.97 | -1.1 |  |  |  |  |  |
| C[S+](=O)([O-])c1cccc(CNC(=O)c2csc(N3CCN(c4cccc(C(F)(F)F)c4)CC3)n2)c1 [NCGC01407971-01] | 251 | -83.43 | -1.1 | -53.81 | -1.2 | 891 |  |  |  |  |  |  |  |  |  |
| Cc1cccc(CNC(=O)c2csc(N3CCN(c4cc(C(F)(F)F)nc5ccccc45)CC3)n2)c1 [NCGC01210239-01] | 9880 |  |  |  |  | 810 | -51.72 | -2.4 | -79.44 | -1.1 |  |  |  |  |  |
| O=C(NCc1ccc2c(c1)CCC2)c1csc(N2CCN(c3cccc(C(F)(F)F)c3)CC2)n1 [NCGC01407784-01] | 40.7 | -74.47 | -1.2 | -99.55 | -1.1 | 18.8 |  |  |  |  |  |  |  |  |  |
| Cc1ccccc1-c1cccc(CNC(=O)c2csc(N3CCN(c4cccc(C(F)(F)F)c4)CC3)n2)c1 [NCGC01407985-01] | 91 | -83.99 | -1.1 | -78.48 | -1.2 | 75 |  |  |  |  |  |  |  |  |  |
| Cc1cc(CNC(=O)c2csc(N3CCN(c4cccc(C(F)(F)F)c4)CC3)n2)cc(C)c1Br [NCGC01407759-01] |  | 0.00 | 5 | -29.26 | -1.4 | 398 |  |  |  |  |  |  |  |  |  |
| CC1(C)Oc2ccc(CNC(=O)c3csc(N4CCN(c5cccc(C(F)(F)F)c5)CC4)n3)cc2O1 [NCGC01397390-01] | 1920 | -76.04 | -1.1 | -96.99 | -1.1 | 25.1 |  |  |  |  |  |  |  |  |  |
| CCc1ccc(N2CCN(c3nc(C(=O)NCc4cccc(C)c4)cs3)CC2)cc1Cl [NCGC01211398-01] | 2480 |  |  |  |  | 580 | -99.68 | -1.1 | -91.75 | -1.1 |  |  |  |  |  |
| Cc1cccc(CNC(=O)c2csc(N3CCN(c4cccc(C(F)(F)F)c4)CC3)n2)c1 [Compound 5] | 3130 |  |  |  |  | 230 | -101.21 | -2.2 | -100.07 | -1.1 | 3130 | 230 nM and 229 nM |  |  |  |
| Cc1cccc(CNC(=O)c2csc(N3CCN(c4ccc(Cl)cn4)CC3)n2)c1 [Compound 11] | 3510 |  |  |  |  | 460 | -68.27 | -1.2 | -99.36 | -1.1 |  |  | good activity |  |  |
| Cc1cccc(CNC(=O)c2csc(N3CCN(c4ccc(OC(F)(F)F)cc4)CC3)n2)c1 [NCGC01211384-01] | 3930 |  |  |  |  | 650 | -82.59 | -1.1 | -96.17 | -1.1 |  |  |  |  |  |
| O=C(NCc1cccs1)c1csc(N2CCN(c3ccc(F)cc3)CC2)n1 [NCGC00430736-01] |  |  |  |  |  | 7080 |  |  |  |  |  |  |  | -65.35 | -1.2 |

Other lines, results leading:

| AC50 [1] [nM] | Cell_Efficacy ([1]; Table S5, OE19 cells) | Cell_CC-v2 ([1]; Table S5, cellular curve class) | Efficacy ([2]; Table S5, biochemical) | CC-v2 [2, 3] | AC50 [2] [nM] | Cell_Efficacy ([1]; Table S4, OE19 cells) | Cell_CC-v2 ([1]; Table S4, cellular curve class) | Efficacy ([2]; Table S4, biochemical) | CC-v2 [2, 4] | IC50 ([1]; cellular IC50 (Aldefluor), OE19 cells) [nM] | IC50 ([2]; ALDH3A1 biochemical IC50) | activity in the biochemical assay ([2]; in words) | Efficacy ([2]; Table S2, in-house analogs) | CC-v2 ([2]; Table S2, in-house analogs, curve class) | Structure (SMILES) |
| --- | --- | --- | --- | --- | --- | --- | --- | --- | --- | --- | --- | --- | --- | --- | --- |
| 2240 | -108.81 | -1.1 | -26.41 | -1.4 | 398 |  |  |  |  |  |  |  |  |  | O=C(NCc1ccc(Oc2ccc(F)cc2)cc1)c1csc(N2CCN(c3cccc(C(F)(F)F)c3)CC2)n1 [NCGC01407922-01] |
|  | 0.00 | 5 | -52.77 | -1.2 | 631 |  |  |  |  |  |  |  |  |  | O=C(NCc1cccc(N2CCC[S+]2(=O)[O-])c1)c1csc(N2CCN(c3cccc(C(F)(F)F)c3)CC2)n1 [NCGC01407948-01] |
| 34.2 | -81.01 | -1.1 | -106.26 | -1.1 | 7.9 |  |  |  |  |  |  |  |  |  | Cc1cc(CNC(=O)c2csc(N3CCN(c4cccc(C(F)(F)F)c4)CC3)n2)ccc1Cl [Compound 16] |
| 316 | -103.28 | -1.1 | -83.40 | -1.1 | 501 |  |  |  |  |  |  |  |  |  | O=C(NCc1cccc(OC(F)(F)F)c1)c1csc(N2CCN(c3cccc(C(F)(F)F)c3)CC2)n1 [NCGC01407819-01] |
| 11200 | -62.69 | -1.4 | 0.00 | 4 |  |  |  |  |  |  |  |  |  |  | O=C(NCc1ccccc1-c1ccc(Cl)cc1Cl)c1csc(N2CCN(c3cccc(C(F)(F)F)c3)CC2)n1 [NCGC01407762-01] |
| 1080 | -91.56 | -1.1 | -100.75 | -1.1 | 14.1 |  |  |  |  |  |  |  |  |  | COc1cc(C)cc(CNC(=O)c2csc(N3CCN(c4cccc(C(F)(F)F)c4)CC3)n2)c1 [NCGC01407935-01] |
| 880 |  |  |  |  | 320 | -93.28 | -1.1 | -97.93 | -1.1 |  |  |  |  |  | Cc1cccc(CNC(=O)c2csc(N3CCN(c4ccc(C(F)(F)F)cc4)CC3)n2)c1 [Compound 7] |
| 644 | -100.81 | -1.1 | -88.60 | -1.1 | 59.6 |  |  |  |  |  |  |  |  |  | Cc1ccc(CNC(=O)c2csc(N3CCN(c4cccc(C(F)(F)F)c4)CC3)n2)cc1C(F)(F)F [NCGC01407772-01] |
| 390 |  |  |  |  | 580 | -73.43 | -1.2 | -72.19 | -1.2 |  |  |  |  |  | Cc1cccc(CNC(=O)c2csc(N3CCN(c4cc(Cl)c(Cl)c(Cl)c4)CC3)n2)c1 [NCGC01211545-01] |
| 31.6 | -111.10 | -1.1 | -57.06 | -1.2 | 8910 |  |  |  |  |  |  |  |  |  | C[S+](=N)([O-])c1cccc(CNC(=O)c2csc(N3CCN(c4cccc(C(F)(F)F)c4)CC3)n2)c1 (centres unmarked) [NCGC01407817-01] |

From article PMC13266984 (Journal of medicinal chemistry, 2026)
